pIC50: −log10 of the molar value. Where two headings read alike, the source gives them in different places.
How the values were obtained:
Format in all cases: biochemical, ovine
COX-2 [1] = assay: in vitro COX-2 enzyme inhibition assay (fluorometric inhibitor screening kit)
Procedure: (§1) Dimethyl sulfoxide (DMSO) and COX-1/2 Inhibitor Screening Kit (BioVison, California, CA, USA) were used according to the manufacturer’s instructions. All other reagents used were of the highest purity commercially available. All samples were dissolved in DMSO at a concentration of 100 mM.
(§2) The ability of the test compounds to inhibit COX-1 and COX-2 isoenzymes in vitro was determined using a Biovision fluorometric COX-1/-2 inhibitor screening assay kit. Briefly, the COX assay buffer (75 μL), COX cofactor working solution (2 μL), COX probe solution (1 μL), recombinant COX-1 or COX-2 (1 μL), arachidonic acid/NaOH solution (10 μL), and test solution (10 μL) were mixed in a 96-well plate, and the fluorescence kinetics were measured for 10 min at 25 °C. […] Fluorescence was measured using a microplate spectrophotometer (Bio-Tek, Winooski, VT, USA). Two points (T1 and T2) in the linear range of the plot were used to obtain the corresponding fluorescence values (RFU1 and RFU2). Then, the slope for all samples (S) was calculated by dividing the net ΔRFU (RFU2 − RFU1) values by the time ΔT (T2 − T1) using the following equation: Relative inhibition (%) = ((slope of the enzyme control − slope of S)/(slope of the enzyme control)) × 100.
(§3) The samples were evaluated in triplicates at five different concentrations.

COX-1 = target: T1, COX-1 (Ovis aries, UniProt P05979); assay: in vitro COX-1 enzyme inhibition assay (fluorometric inhibitor screening kit)
T1 construct: purchased BioVision
T1 sequence (P05979 25-600): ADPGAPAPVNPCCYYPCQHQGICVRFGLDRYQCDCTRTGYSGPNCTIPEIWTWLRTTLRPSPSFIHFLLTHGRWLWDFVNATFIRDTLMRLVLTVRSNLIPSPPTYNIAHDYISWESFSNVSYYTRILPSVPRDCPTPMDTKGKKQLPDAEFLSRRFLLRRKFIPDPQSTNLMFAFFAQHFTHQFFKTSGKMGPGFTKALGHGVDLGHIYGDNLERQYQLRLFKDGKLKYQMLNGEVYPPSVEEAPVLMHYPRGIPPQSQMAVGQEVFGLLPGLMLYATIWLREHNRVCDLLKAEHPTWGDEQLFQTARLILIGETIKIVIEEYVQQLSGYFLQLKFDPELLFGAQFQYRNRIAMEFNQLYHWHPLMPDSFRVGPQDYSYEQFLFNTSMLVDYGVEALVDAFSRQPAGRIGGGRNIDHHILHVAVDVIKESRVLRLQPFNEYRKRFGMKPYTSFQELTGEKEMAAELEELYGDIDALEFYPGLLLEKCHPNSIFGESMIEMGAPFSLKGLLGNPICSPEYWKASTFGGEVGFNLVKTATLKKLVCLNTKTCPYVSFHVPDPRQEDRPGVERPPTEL
Procedure: as §1, §2, §3

COX-2 [2] = target: T2, COX-2 (Homo sapiens, UniProt P35354); assay: in vitro COX-2 enzyme inhibition assay (fluorometric inhibitor screening kit)
T2 sequence (P35354 18-604): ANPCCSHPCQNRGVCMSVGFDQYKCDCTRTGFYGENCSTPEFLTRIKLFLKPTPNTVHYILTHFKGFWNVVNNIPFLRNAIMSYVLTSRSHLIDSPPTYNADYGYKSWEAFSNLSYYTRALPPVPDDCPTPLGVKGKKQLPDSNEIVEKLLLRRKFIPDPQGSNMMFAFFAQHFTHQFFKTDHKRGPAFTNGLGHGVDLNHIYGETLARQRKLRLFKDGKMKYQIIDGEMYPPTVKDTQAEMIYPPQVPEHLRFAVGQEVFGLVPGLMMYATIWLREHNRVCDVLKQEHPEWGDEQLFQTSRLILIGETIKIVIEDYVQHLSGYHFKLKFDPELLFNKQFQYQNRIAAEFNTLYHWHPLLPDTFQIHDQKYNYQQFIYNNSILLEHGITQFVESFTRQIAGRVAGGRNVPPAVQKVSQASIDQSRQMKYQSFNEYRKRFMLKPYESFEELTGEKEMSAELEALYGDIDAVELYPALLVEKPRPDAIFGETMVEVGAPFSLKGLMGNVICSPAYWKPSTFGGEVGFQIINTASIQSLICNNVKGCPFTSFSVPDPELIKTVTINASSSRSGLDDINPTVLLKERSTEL
Procedure: as §1, §2, §3

[3] = triplicates at five concentrations, read-out: IC50 COX-1

Row | Compound | COX-2 inhibition activity (in words) (COX-2 [2]) | pIC50 (COX-1) | SI (selectivity index, COX-1 IC50/COX-2 IC50) (COX-2 [1]) | pIC50 (COX-1; [3])
1 | CC(C)=CCc1c(-c2ccc(O)c3c2OC(C)(C)C=C3)oc2cc(O)cc(O)c2c1=O [Kuwanon A, kuwanon A] | – | – | >7.1 | < 4.00
2 | CC(C)=CCc1c(O)ccc(C(=O)C2C(c3c(O)cc(O)c4c(=O)c(CC=C(C)C)c(-c5ccc(O)cc5O)oc34)C=C(C)CC2c2ccc(O)cc2O)c1O (stereo not shown) [Kuwanon H, kuwanon H] | – | – | – | 4.43
3 | CC(C)=CCC/C(C)=C/Cc1cc(C2CC(=O)c3c(O)cc(O)cc3O2)c(O)cc1O (stereo not shown) [Kuwanon E, kuwanon E] | – | – | 1.4 | 4.34
4 | CC(C)=CCc1c(-c2ccc3c(c2O)C=CC(C)(C)O3)oc2cc(O)cc(O)c2c1=O [Kuwanon B, kuwanon B] | – | – | 1.3 | 4.44

Further lines, with some results ahead:

Row | COX-2 inhibition activity (in words) (COX-2 [2]) | pIC50 (COX-1) | Compound | SI (selectivity index, COX-1 IC50/COX-2 IC50) (COX-2 [1]) | pIC50 (COX-1; [3])
5 | no COX-2 inhibition activity | – | CC(C)=CCc1c(-c2ccc(O)cc2O)oc2c(C3C=C(C)CC(c4ccc(O)cc4O)C3C(=O)c3ccc(O)cc3O)c(O)cc(O)c2c1=O (stereo not shown) [Kuwanon G, kuwanon G] | – | < 4.00
6 | – | 4.17 | CC(C)=CCc1c(-c2ccc(O)cc2O)oc2c(CC=C(C)C)c(O)cc(O)c2c1=O [Kuwanon C, kuwanon C] | – | –
